Values quoted from earlier work, collected in publication PMC4846294 (Bioorganic & medicinal chemistry, 2016).
Marks after values point to notes of the source that are not given here.

Key:
SK-OV-3 (ovarian) = settings: read-out: GI50 SRB Assay SK-OV-3; cited from earlier work
NCI-H460 (lung) = settings: read-out: GI50 SRB Assay NCI-H460; cited from earlier work
DU-145 (prostate) = settings: read-out: GI50 SRB Assay DU-145; cited from earlier work
[1] = system: purified bovine brain tubulin; settings: read-out: Inhibition of Tubulin Polymerization IC50; cited from earlier work
tubulin = settings: inhibitor 5 μM; cited from earlier work

SMILES: COc1ccc(/C=C\c2cc(OC)c(OC)c(OC)c2)c(O)c1O [CA1, combretastatin A-1]
- GI50 (SK-OV-3 (ovarian)): 38.4 ± 24.2 nM
- GI50 (NCI-H460 (lung)): 15.3 ± 15.8 nM
- GI50 (DU-145 (prostate)): 32.6 ± 17.3 nM
- IC50 [1]: 1900 nM
- Inhibition of Colchicine Binding (% Inhibition±SD) (tubulin): 99.6±0.7^b %
